From patent US12522596B2, “Compounds as GLP-1R agonists” (Terns Pharmaceuticals, Inc., priority 2021, dated 2026)
“Also recorded” adds a separate entry of the source.

Columns and labels:
[1] = tested on: mice expressing wildtype (WT) mouse GLP-1R; assay: Glucose tolerance in mice expressing wildtype mouse GLP-1R; type: in vivo; details: mice expressing WT mouse GLP-1R
Procedure: The glucose tolerance of mice expressing wildtype (WT) mouse GLP-1R was also evaluated after the administration of compound 2 using methods analogous to those described above. The glucose tolerance of mice expressing WT mouse GLP-1R was not affected by Compound 2, whereas the glucose tolerance of mice expressing human GLP-1R was improved by Compound 2 (FIGS. 9 and 10).

[2] = tested on: C57BL/6 mice expressing human GLP-1R (hGLP-1R); assay: Food intake in humanized mouse model; type: in vivo; details: hGLP-1R mice, relative to vehicle control; Compound 2 10, 30, 60 mg/kg PO
Procedure: The ability of compounds disclosed herein to modify the food intake of C57BL/6 mice expressing human GLP-1R (hGLP-1R) was evaluated.
The dose protocol used in this study is described in Table 6.
Acclimation and grouping: Mice were acclimated for QD PO dosing with vehicle for 4 days, baseline body weight and food intake were measured for 4 consecutive days. Animals were allocated into 8 groups based on body weight and 3rd day's food intake.
Dose body weight and food intake measurement: All animals were placed in clean cages with sawdust bedding and fasted overnight, mice were dosed with vehicle or test compound in the morning. All group's food was added 15 minutes post dosing, food remaining was recorded at 2-, 4-, 6-, 8-, 10- and 24-h post dosing. (FIG. 4) Body weight was determined on a daily basis during the study.
Data processing and analysis: Manual data were transferred into an excel spreadsheet. All values were expressed as mean±S.E.M. The significances of the differences among groups and within groups are evaluated by one-way or two-way ANOVA using Graph Pad statistic software. A p-value of less than 0.05 was considered statistically significant.

[3] = tested on: C57BL/6 mice expressing human GLP-1R (hGLP-1R); assay: Intraperitoneal glucose tolerance test (IPGTT) in hGLP-1R mice; type: in vivo, mouse; details: IP glucose bolus, relative to vehicle control
Procedure: The ability of compounds disclosed herein to modify the glucose tolerance of C57BL/6 mice expressing human GLP-1R (hGLP-1R), was evaluated.
The group design used in this study is described in Table 8.
Acclimation and grouping: Following a one-week washout period after in-life completion of the food intake study, mice were utilized to conduct an intraperitoneal Glucose Tolerance Test (IPGTT); mice remained in their treatment groups from study the food intake study. Baseline fasting glucose levels were used to balance treatment groups (final n=7 per treatment group); outlier mice (n=3), based on abnormal fasting blood glucose and body weight, were used for PK assessment.
Intraperitoneal Glucose Tolerance Test (IPGTT): The mice were placed clean cages with sawdust bedding and fasted overnight. Basal fasting glucose was measured by tail vein nick before dosing in the morning, 3 mice per group of abnormal fasting blood glucose and body weight were used for PK assessment. […] Blood glucose levels were measured at 0 (pre-dose), 15-, 30-, 60-, and 120-min post glucose dosing. […]
Data Processing and analysis: Manual data were transferred into an excel spreadsheet. All values are expressed as mean±S.E.M. The significances of the differences among groups and within groups were evaluated by one-way or two-way ANOVA using Graph Pad statistic software. […]

human hepatocytes = assay: Metabolic stability in human hepatocytes; type: in vitro ADME; details: human
Procedure: Test compounds were incubated in rat and human hepatocytes and stability was assessed from the substrate […] approach. Test compounds were dissolved in dimethyl sulfoxide (DMSO) to create a 10 mM Stock, and then further diluted to create a 1000× Working Stock of 1 mM with DMSO in 96-well plates for test compounds and the positive control (midazolam). Vials containing cryopreserved hepatocytes were removed from the liquid nitrogen tank and immediately immersed in a 37° C. water bath. The vials were shaken gently until the contents had thawed and were then immediately emptied into 48 mL of pre-warmed HT Medium in a 50 mL conical tube. Cells remaining in the vial were resuspended with 1.0 mL of pre-warmed HT Medium and added to the conical tube. The tube was capped and then gently inverted several times to resuspend the hepatocytes. The cell suspension was centrifuged at 50×g at room temperature for 5 minutes and the supernatant discarded. The cell pellet was loosened by gently swirling the centrifuge tube and was re-suspended in 4 mL of warm Dulbecco's Modified Eagle medium (DMEM). Cell density was determined by a cell counter by Nexcelom, and DMEM medium was added to obtain a target density of 1×10^6 cells/mL. The assay was carried out in 96-well microtiter plates. Test Compounds were incubated at 1 μM with 1×10^6 cells/mL hepatocytes in DMEM for 0, 30, 60, 120 and 240 minutes. The incubation was carried out with gentle shaking at 37° C. under a humid atmosphere of 95% air/5% CO2. The volume of the incubation mixture was 37 μL with a final 0.1% DMSO. At each of the time points, the incubation was stopped by adding 150 μL quenching solution (100% acetonitrile, 0.1% formic acid containing bucetin as an internal standard for positive ESI mode). Subsequently, the mixtures were vortexed for 20 min and centrifuged at 4,000 RPM at 10° C. The supernatant (80 μL) was transferred to a clean 96-well plate and analyzed by LC-MS/MS. Midazolam at 1 μM with a final 0.1% DMSO was included as a positive control to verify assay performance. The percent parent remaining, intrinsic and predicted hepatic clearance and t1/2 were calculated. All samples were analyzed by LC-MS/MS using an AB Sciex API 4000 instrument, coupled to a Shimadzu LC-20AD LC Pump system. Separation was achieved using a Waters Atlantis T3 dC18 reverse phase HPLC column (20 mm×2.1 mm) at a flow rate of 0.5 mL/min. The mobile phase consisted of 0.1% formic acid in water (solvent A) and 0.1% formic acid in 100% acetonitrile (solvent B). Elution conditions are detailed below.
The ion optics of each test compound were optimized for their declustering potential (DP), […] (CE), collision-cell exit potential (CXP) and used in a selected ion monitoring experiment in the positive ion mode. The peak area ratio of each test compound to internal standard was then evaluated for stability. The extent of metabolism was calculated based on the disappearance of the test compound, compared to its initial concentration. The initial rates of clearance of the test compound were calculated using the linear regression plot of semi-log % remaining of the compound versus time. The elimination rate constant (k) of the linear regression plot was then used to determine t1/2 and the intrinsic clearance (CLint) using the following formula, where Chepatocyte (million cells/mL) is the cell density of the incubation:
The predicted hepatic clearance (CLhep) was calculated using the well stirred method with the following formula with CLint(in vivo) normalized based on liver weight: […]
The relevant physiological parameters of liver weight, blood flow, and hepatocellularity for various species are listed below: […]

`N#Cc1ccc(COc2cccc(C3CCN(Cc4nc5ccc(C(=O)O)cc5n4Cc4cncs4)CC3)n2)c(F)c1` [Compound 2] was tested, and the glucose tolerance [1] was “not affected”, the food intake [2] was “reduction in food intake; also recorded: significantly suppressed food intake” and the glucose tolerance [3] was “significantly enhanced the glucose tolerance; also recorded: improved”.

With `N#Cc1ccc(COc2cccc(N3CCN(Cc4nc5ccc(C(=O)O)cc5n4Cc4cncs4)CC3)n2)c(F)c1` [Compound 30] the “CLint relative to reference” value (human hepatocytes) was “no significant difference” and the “half-life relative to standard” value (human hepatocytes) was “no significant difference”.

`N#Cc1ccc(COc2cccc(C3CCN(Cc4nc5ccc(C(=O)O)cc5n4C[C@@H]4CCO4)CC3)n2)c(F)c1` [Reference Compound A, reference compound] was tested, and the food intake [2] was “reduction in food intake”.
